{
  "source": "patent US20100172870A1",
  "about": "“METHODS, USES AND COMPOSITIONS FOR MODULATING REPLICATION OF HCV THROUGH THE FARNESOID X RECEPTOR (FXR) ACTIVATION OR INHIBITION” (priority 2006, published 2010)",
  "key": {"[1]": {"system": "genotype 1b replicon (R1b)", "assay": "HCV subgenomic replicon R1b luciferase assay", "assay_type": "cell-based, hepatitis C virus (HCV)", "description": "(§1) Replicons: Three subgenomic replicons were used in this study: two replicative forms called R1a and R1b according to their genotype origin and a derivative of the R1b replicon with a mutation in the RNA-dependant RNA polymerase (Rp-del) which is thus unable to replicate and was used as a negative control in all experiments. They are bicistronic RNAs which contains the firefly luciferase (Photinus pyralis) reporter gene downstream of the HCV IRES and the sequence coding for the polyprotein NS3 to NS5B downstream of the encephalomyocarditis virus (EMCV) IRES.\nRNA transfection: The replicons were transfected into Huh7 cells by electroporation.\nSubconfluent monolayers of Huh7 cells were detached from the culture dish by trypsin treatment and rinsing with complete DMEM. […] 400 μL of the cell suspension was mixed by gentle pipetting with 8 μg RNA (R1a, R1b or Rp-del) and transferred into an electroporation cuvette with a gap-width of 0.4 cm (BioRad). The mixture was immediately subjected to one electric pulse at 270 V, 950 μF and maximum resistance using a Gene Pulser System (BioRad).\nAfter electroporation the 400 μL of each cell suspension was diluted in 9 mL complete DMEM and pooled together before being seeded onto 24-well plates (1 mL per well).\nLuciferase Assay: Cells were washed with PBS and scraped off the plate with 80 μL of 1× Luciferase Cell Culture Lysis Reagent (Promega). 40 μL of the lysate were transferred to a 96-well plate and mixed with 200 μL of Luciferase Assay Reagent (Promega). Luminescence expressed as relative light units (RLU) was measured immediately on a scintillation counter (Top Count NXT, Perkin Elmer) for 10 s.\n(§2) The data are averages from triplicate cultures. […] The values are expressed as relative ratios of the values obtained 4 h after electroporation. Unless otherwise stated, the RLU values were determined 72 h after transfection when cells were confluent."}, "[2]": {"system": "non-structural proteins NS4a and NS5a in R1b-transfected cells", "assay": "HCV protein expression by immunofluorescence staining and FACS analysis", "assay_type": "cell-based, hepatitis C virus (HCV)", "details": "for NS5a positive cells by FACS analysis: 3 days of treatment (untreated 22%); for mean fluorescence intensity in the positive cells: NS5a-labeling, 3 days (untreated 16)", "method": "Immunofluorescence staining: Three days after electroporation, cells were plated in 8-well chamber slides at a density of 5×10^4 cells per well. 24 hours after, slides were washed in PBS and fixed in ⅔ acetone-ethanol for 5 minutes at −20° C. followed by 50 minutes block in PBS-glycin 0.2M. Primary antibodies were added to the cells at a 1:500 dilution in PBS-glycin 0.2M for 1 h at room temperature. After 3 washes in PBS, fluorescein conjugated secondary antibodies (Jackson ImmunoResearch) were added to the cells at a 1:50 dilution in PBS-glycin 0.2M for 40 minutes at room temperature. In the meantime, cells were counterstained with Evans Blue (Merck).\nFACS analysis: 72 h post-electroporation, single-cell suspension was prepared for FACS analysis. Briefly 0.8.10^6 cells were fixed and permeabilised for 15 min at room temperature with Cytofix/Cytoperm (PharMingen). Cells were stained for 30 min with primary antibodies at a 1:500 dilution in Perm/Wash Buffer (PharMingen). Bound monoclonal antibody was detected by incubation for 30 min at 4° C. with secondary antibody diluted 1:100 in Perm/Wash Buffer. The stained cells were resuspended in PBS prior to analysis using a FACSCalibur 3C (BD Biosciences)."}, "[3]": {"system": "genotype 1a replicon (R1a)", "assay": "HCV subgenomic replicon R1a luciferase assay", "assay_type": "cell-based, hepatitis C virus (HCV)", "details": "Huh7-Lunet cells, 72 h of treatment, CDCA 100 μM or GGS 10 μM", "description": "as §1, with “IRES. […]” for “IRES.”\nSubconfluent monolayers of Huh7 cells were detached from the culture dish by trypsin treatment and rinsing with complete DMEM. The cells were washed once with phosphate buffer saline (PBS), counted and resuspended at 10^7 cells per mL in Cytomix buffer (Van den Hoff, M J. Et al. 1992). […]\nLuciferase Assay: Cells were washed with PBS and scraped off the plate with 80 μL of 1× Luciferase Cell Culture Lysis Reagent (Promega). […] Luminescence expressed as relative light units (RLU) was measured immediately on a scintillation counter (Top Count NXT, Perkin Elmer) for 10 s.\nas §2"}, "[4]": {"system": "replicon transfected cells (Huh7)", "assay": "Toxicity for Huh7 / replicon transfected cells", "assay_type": "cell-based, human", "description": "BAs, sterols and fatty acids are structurally related natural ligands of the NR1 family of nuclear receptors expressed in the liver and intestine. […] BAs were recently described as the natural ligands for FXR (Makishima M. et al. 2002; Parks D J. et al. 1999). To examine whether BAs were mediating their effects on HCV RNA replication through FXR we tested a panel of FXR ligands including the two formerly described FXR ligands that activate FXR at supraphysiological concentrations, farnesol and the synthetic retinoid TTNPB at a concentration of 10 μM each and other BAs such as CA, LCA, and UDCA, all at a concentration of 100 μM (FIG. 4B)."}, "[5]": {"target": "T1, FXR (Homo sapiens, UniProt Q96RI1)", "T1 construct": "host or cells: HepG2", "T1 sequence (Q96RI1 1-486)": "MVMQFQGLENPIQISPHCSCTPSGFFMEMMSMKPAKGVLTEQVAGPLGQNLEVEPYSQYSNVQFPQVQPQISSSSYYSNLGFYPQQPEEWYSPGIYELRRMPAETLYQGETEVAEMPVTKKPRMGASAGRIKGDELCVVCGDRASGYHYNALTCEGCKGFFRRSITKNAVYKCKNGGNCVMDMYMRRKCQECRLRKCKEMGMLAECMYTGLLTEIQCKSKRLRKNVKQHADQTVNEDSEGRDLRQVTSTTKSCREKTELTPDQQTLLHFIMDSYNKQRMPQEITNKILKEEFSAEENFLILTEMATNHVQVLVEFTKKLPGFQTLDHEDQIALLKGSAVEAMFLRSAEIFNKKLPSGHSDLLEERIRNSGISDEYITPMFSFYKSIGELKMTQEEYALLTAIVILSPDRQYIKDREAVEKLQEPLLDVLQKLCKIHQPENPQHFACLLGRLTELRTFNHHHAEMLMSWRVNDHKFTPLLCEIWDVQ", "details": "Urizar N L. et al. 2002, cited from earlier work"}},
  "data": [
    {"smiles": "CC(C)CCC(O)[C@@H](C)[C@H]1CC[C@H]2[C@@H]3CC=C4C[C@@H](O)CC[C@]4(C)[C@H]3CC[C@]12C", "note": "(some centres unmarked) [22-hydroxycholesterol]", "values": [
      {"measurement": "effect on luciferase activity at 5 μM", "setting": "[1]; Huh7 cells, 72 h (FIG. 4B)", "result": "did not show any effect on replication"}
    ]},
    {"smiles": "C[C@H](CCCC(C)(C)O)[C@H]1CC[C@H]2[C@@H]3CC=C4C[C@@H](O)CC[C@]4(C)[C@H]3CC[C@]12C", "note": "[25-hydroxycholesterol]", "values": [
      {"measurement": "effect on luciferase activity at 1 μM", "setting": "[1]; Huh7 cells, 1 μM, 72 h (FIG. 4B)", "result": "did not show any effect on replication"}
    ]},
    {"smiles": "C[C@H](CCC(=O)O)[C@H]1CC[C@H]2[C@@H]3[C@H](O)C[C@@H]4C[C@H](O)CC[C@]4(C)[C@H]3C[C@H](O)[C@]12C", "note": "[CA, cholic acid]", "values": [
      {"measurement": "effect on luciferase activity at 100 μM", "setting": "[1]; Huh7 cells, 72 h (FIG. 4B)", "result": "only weak activity"}
    ]},
    {"smiles": "C[C@H](CCC(=O)O)[C@H]1CC[C@H]2[C@@H]3[C@H](O)C[C@@H]4C[C@H](O)CC[C@]4(C)[C@H]3CC[C@]12C", "note": "[CDCA, chenodeoxycholic acid]", "values": [
      {"measurement": "NS5a positive cells by FACS analysis", "setting": "[2]", "result": 27, "unit": "%"},
      {"measurement": "mean fluorescence intensity in the positive cells", "setting": "[2]", "result": 39},
      {"measurement": "effect on luciferase activity at 100 μM", "setting": "[1]; Huh7 cells, 72 h (FIG. 4B)", "result": "most potent activator"},
      {"measurement": "effect on luciferase activity, dose-response", "setting": "[1]; Huh7 cells, 10, 50 or 100 μM, 72 h", "result": "dose-dependent"},
      {"measurement": "concentration reaching maximum level of luciferase activity", "setting": "[1]; Huh7 cells, 72 h", "result": 100, "unit": "µM"},
      {"measurement": "lowest concentration with detectable specific activity on luciferase", "setting": "[1]; Huh7 cells, 72 h", "result": 10, "unit": "µM"},
      {"measurement": "up-regulation of HCV RNA replication, comparison of free BAs", "setting": "[1]; Huh7 cells, dose-response, 72 h", "result": "more efficiently than DCA"},
      {"measurement": "response of genotype 1a replicon to FXR-modulation", "setting": "[3]", "result": "same behaviour as genotype 1b"}
    ]},
    {"smiles": "C[C@H](CCC(=O)O)[C@H]1CC[C@H]2[C@@H]3CC[C@@H]4C[C@H](O)CC[C@]4(C)[C@H]3C[C@H](O)[C@]12C", "note": "[DCA, deoxycholic acid]", "values": [
      {"measurement": "mortality of treated cells compared to untreated", "setting": "[4]; Huh7 cells, 100 μM", "result": "No increase in the mortality"},
      {"measurement": "concentration reaching maximum level of luciferase activity", "setting": "[1]; Huh7 cells, 72 h", "result": 100, "unit": "µM"},
      {"measurement": "increase of luciferase activity", "setting": "[1]; Huh7 cells, DCA 100 μM, 72 h of treatment, vs untreated R1b cells", "result": 15, "unit": "fold"},
      {"measurement": "time over which high levels of luciferase activities could be maintained", "setting": "[1]; Huh7 cells, DCA 100 μM, long-term culture with passages every 3 or 4 days", "result": "more than 2 weeks"}
    ]},
    {"smiles": "C/C=C1\\C(=O)CC2C3CCC4=CC(=O)CC[C@]4(C)C3CC[C@]12C", "note": "(stereo partly drawn) [GGS, trans-4,17(20)-pregnadiene-3,16-dione]", "values": [
      {"measurement": "NS4a and NS5a expression", "setting": "[2]; 3 days of treatment", "result": "almost completely abolished"},
      {"measurement": "NS5a positive cells by FACS analysis", "setting": "[2]", "result": 4, "unit": "%"},
      {"measurement": "mean fluorescence intensity in the positive cells", "setting": "[2]", "result": "very weak fluorescence intensity"},
      {"measurement": "concentrations toxic for the replicon transfected cells", "setting": "[4]; replicon transfected cells", "result": 40, "unit": "µM"},
      {"measurement": "inhibition at 20 µM", "setting": "[1]; Hepatitis C virus, Huh-7, Huh7-Lunet cells, 20 μM, 72 h, read-out: inhibition of the replication", "result": "≤ 95", "unit": "%"},
      {"measurement": "IC50", "setting": "[1]; Hepatitis C virus, Huh-7, Huh7-Lunet cells, basal replication, 72 h, read-out: inhibitory concentration causing a decrease of half the basal activity (IC50)", "result": "~2000", "unit": "nM"},
      {"measurement": "inhibition of the effect of CDCA on replication", "setting": "[1]; Huh7-Lunet cells, CDCA 100 μM, guggulsterone 0.01 μM up to 20 μM, 72 h", "result": "inhibited in a dose-dependent fashion"},
      {"measurement": "further decrease of luciferase activity when associated to a given concentration of IFN", "setting": "[1]; Huh7-Lunet cells, GGS 10 μM plus IFN, 72 h", "result": "about 10 fold"},
      {"measurement": "inhibition of the basal replication of HCV", "setting": "[1]; Huh7-Lunet cells, absence of BAs stimulation, 72 h", "result": "could also inhibit the basal replication"},
      {"measurement": "response of genotype 1a replicon to FXR-modulation", "setting": "[3]", "result": "same behaviour as genotype 1b"},
      {"measurement": "effect of GGS alone on FXR activity", "setting": "[5]; HepG2 cells, bile salt export pump promoter-driven luciferase construct", "result": "had no effect"},
      {"measurement": "concentration range antagonizing FXR", "setting": "[5]", "result": "micromolar range"}
    ]},
    {"smiles": "C/C(=C\\c1ccc(C(=O)O)cc1)c1ccc2c(c1)C(C)(C)CCC2(C)C", "note": "[TTNPB, (E)-[(tetrahydrotetramethylnaphthalenyl)propenyl]benzoic acid]", "values": [
      {"measurement": "effect on luciferase activity at 10 μM", "setting": "[1]; Huh7 cells, 72 h (FIG. 4B)", "result": "slightly increased"}
    ]},
    {"smiles": "CC(C)CCC[C@@H](C)[C@H]1CC[C@H]2[C@@H]3CC=C4C[C@@H](O)CC[C@]4(C)[C@H]3CC[C@]12C", "note": "[cholesterol]", "values": [
      {"measurement": "effect on luciferase activity at 10 μM", "setting": "[1]; Huh7 cells, 72 h (FIG. 4B)", "result": "did not show any effect on replication"}
    ]},
    {"smiles": "CC(C)=CCCC(C)=CCCC(C)=CCO", "note": "[farnesol]", "values": [
      {"measurement": "effect on luciferase activity at 10 μM", "setting": "[1]; Huh7 cells, 72 h (FIG. 4B)", "result": "slightly increased"}
    ]},
    {"smiles": "CC(=O)[C@H]1CC[C@H]2[C@@H]3CC=C4C[C@@H](O)CC[C@]4(C)[C@H]3CC[C@]12C", "note": "[pregnenolone]", "values": [
      {"measurement": "effect on luciferase activity at 10 μM", "setting": "[1]; Huh7 cells, 72 h (FIG. 4B)", "result": "None of these compounds induced any upregulation of the luciferase activity"}
    ]},
    {"smiles": "CC(=O)[C@H]1CC[C@H]2[C@@H]3CCC4=CC(=O)CC[C@]4(C)[C@H]3CC[C@]12C", "note": "[progesterone]", "values": [
      {"measurement": "effect on luciferase activity at 5 μM", "setting": "[1]; Huh7 cells, 72 h (FIG. 4B)", "result": "None of these compounds induced any upregulation of the luciferase activity"}
    ]}
  ]
}
